Experimental findings from patent publication US20250302815A1, “PROTEIN TYROSINE PHOSPHATASE TARGETING LIGANDS” (CALICO LIFE SCIENCES LLC, priority 2021, published 2025) are described below.

Experiment [1] concerns the target T1, PTPN2 (HiBIT-PTPN2 in 293T.109 cells) (Homo sapiens, UniProt P17706).
T1 construct: expressed in transfected cells; host or cells: 293T.109 (293T WT from ATCC)
T1 sequence (P17706 1-415): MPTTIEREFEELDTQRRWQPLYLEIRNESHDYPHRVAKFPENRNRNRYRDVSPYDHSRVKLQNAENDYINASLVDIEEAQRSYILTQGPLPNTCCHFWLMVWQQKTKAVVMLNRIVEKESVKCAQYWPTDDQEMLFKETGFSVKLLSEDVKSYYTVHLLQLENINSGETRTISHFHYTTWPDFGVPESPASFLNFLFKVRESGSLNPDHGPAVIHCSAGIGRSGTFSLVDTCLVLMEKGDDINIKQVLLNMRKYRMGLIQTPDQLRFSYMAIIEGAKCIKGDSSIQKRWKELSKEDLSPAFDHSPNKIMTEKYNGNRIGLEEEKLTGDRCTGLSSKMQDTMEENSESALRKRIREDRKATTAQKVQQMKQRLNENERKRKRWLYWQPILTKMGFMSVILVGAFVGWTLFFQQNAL
The experiment in a line: HiBiT Degradation 293T.109 PTPN2 (Nano-Glo HiBiT Lytic Assay). The class given is cell-based. The following applies: 24.0 hours. The method in brief:
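293T.109 cells with ectopic N-terminal HiBiT-tagged PTPN2 (5000/well) exposed to compounds for 24 h at 37 °C, 5% CO2; 11-point half-log titration from 10 μM top, duplicates. Remaining HiBiT-PTPN2 read as luminescence with Nano-Glo HiBiT lytic reagent, normalised to untreated cells (0%) and reagent-free wells.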

Experiment [2] has as its target T2, PTPN2 (B16F10.4 cells) (Mus musculus, UniProt Q06180).
T2 construct: HiBiT; host or cells: B16F10.4
T2 sequence (Q06180 1-406): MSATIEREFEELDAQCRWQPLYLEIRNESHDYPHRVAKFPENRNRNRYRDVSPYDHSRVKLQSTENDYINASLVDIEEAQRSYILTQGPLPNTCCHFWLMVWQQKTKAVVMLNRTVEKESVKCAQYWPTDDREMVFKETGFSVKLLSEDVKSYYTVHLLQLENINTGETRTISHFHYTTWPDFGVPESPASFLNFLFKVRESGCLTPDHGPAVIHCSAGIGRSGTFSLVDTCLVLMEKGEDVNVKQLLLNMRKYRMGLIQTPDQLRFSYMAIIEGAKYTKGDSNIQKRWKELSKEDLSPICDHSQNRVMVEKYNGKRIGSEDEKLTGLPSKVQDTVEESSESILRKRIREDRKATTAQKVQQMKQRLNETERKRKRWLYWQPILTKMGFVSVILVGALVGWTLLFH
Briefly: HiBiT Degradation B16F10.4 PTPN2. The class given is cell-based. As to conditions: 24.0 hours.

With `O=C(O)COc1c(C(=O)O)sc(-c2cccc(NC3CCN(S(=O)(=O)Cc4cccc(NC(=O)CCCCCCNC(=O)CNc5ccc6c(c5)CN(C5CCC(=O)NC5=O)C6=O)c4)CC3)c2)c1Cl` (stereo not shown) [Example 25, 3-(carboxymethoxy)-4-chloro-5-[3-[[1-[[3-[7-[[2-[[2-(2,6-dioxo-3-piperidyl)-1-oxo-isoindolin-5-yl]amino]acetyl]amino]heptanoylamino]phenyl]methylsulfonyl]-4-piperidyl]amino]phenyl]thiophene-2-carboxylic acid], the 50% degradation concentration (DC50) in experiment [1] and in experiment [2] was 200 to 1000 nM each time.
For the compound `O=C(O)COc1c(C(=O)O)sc(-c2cccc(NC3CCN(S(=O)(=O)Cc4cccc(NC(=O)N5CCC(Nc6cccc7c6CN(C6CCC(=O)NC6=O)C7=O)CC5)c4)CC3)c2)c1Cl` (stereo not shown) [Example 59, 3-(carboxymethoxy)-4-chloro-5-[3-[[1-[[3-[[4-[[2-(2,6-dioxo-3-piperidyl)-1-oxo-isoindolin-4-yl]amino]piperidine-1-carbonyl]amino]phenyl]methylsulfonyl]-4-piperidyl]amino]phenyl]thiophene-2-carboxylic acid], the 50% degradation concentration (DC50) in experiment [1] and in experiment [2] was 200 to 1000 nM each time.
With `Cn1c(=O)n(C2CCC(=O)NC2=O)c2ccc(N3CC(OCC(=O)Nc4cccc(CS(=O)(=O)N5CC[C@H](Nc6cccc(-c7sc(C(=O)O)c(OCC(=O)O)c7Cl)c6)CC5(C)C)c4)C3)cc21` (stereo partly drawn) [Example 107, 3-(carboxymethoxy)-4-chloro-5-[3-[[(4S)-1-[[3-[[2-[1-[1-(2,6-dioxo-3-piperidyl)-3-methyl-2-oxo-benzimidazol-5-yl]azetidin-3-yl]oxyacetyl]amino]phenyl]methylsulfonyl]-2,2-dimethyl-4-piperidyl]amino]phenyl]thiophene-2-carboxylic acid], the half-maximal degradation concentration (DC50) in experiment [1] lay in the range of 50 to 200 nM; in experiment [2], 200 to 1000 nM.
Taken in the same sequence, the figures for `CN(C(=O)CCN1CCC(Nc2cccc3c2CN(C2CCC(=O)NC2=O)C3=O)CC1)c1cccc(CS(=O)(=O)N2CCC(Nc3cccc(-c4sc(C(=O)O)c(OCC(=O)O)c4Cl)c3)CC2(C)C)c1` (stereo not shown) [Example 71, 3-(carboxymethoxy)-4-chloro-5-(3-((1-((3-(3-(4-((2-(2,6-dioxopiperidin-3-yl)-1-oxoisoindolin-4-yl)amino)piperidin-1-yl)-N-methylpropanamido)benzyl)sulfonyl)-2,2-dimethylpiperidin-4-yl)amino)phenyl)thiophene-2-carboxylic acid] were 50 to 200 nM and no less than 1000 nM.
As for `Cn1c(=O)n(C2CCC(=O)NC2=O)c2cccc(OC3CCN(C(=O)Nc4cccc(CS(=O)(=O)N5CC[C@H](Nc6cccc(-c7sc(C(=O)O)c(OCC(=O)O)c7Cl)c6)CC5(C)C)c4)CC3)c21` (stereo partly shown) [Example 151], the DC50 in experiment [1] and in experiment [2] was 200 to 1000 nM in each case.
Consider `Cn1c(=O)n(C2CCC(=O)NC2=O)c2ccc3c(c21)CCCN3C1CCN(C(=O)Nc2cccc(CS(=O)(=O)N3CC[C@H](Nc4cccc(-c5sc(C(=O)O)c(OCC(=O)O)c5Cl)c4)CC3(C)C)c2)CC1` (stereo partly drawn) [Example 222, 3-(carboxymethoxy)-4-chloro-5-[3-[[(4S)-1-[[3-[[4-[3-(2,6-dioxo-3-piperidyl)-1-methyl-2-oxo-8,9-dihydro-7H-imidazo[4,5-f]quinolin-6-yl]piperidine-1-carbonyl]amino]phenyl]methylsulfonyl]-2,2-dimethyl-4-piperidyl]amino]phenyl]thiophene-2-carboxylic acid], for which the DC50 in experiment [1] and in experiment [2] was 50 to 200 nM in each case.
Consider `CC1(C)CC(Nc2cccc(-c3sc(C(=O)O)c(OCC(=O)O)c3Cl)c2F)CCN1S(=O)(=O)Cc1ccc(F)c(NC(=O)C2CN(C(=O)CNc3cccc4c3CN(C3CCC(=O)NC3=O)C4=O)C2)c1` (stereo not shown) [Example 146, 3-(carboxymethoxy)-4-chloro-5-[3-[[1-[[3-[[1-[2-[[2-(2,6-dioxo-3-piperidyl)-1-oxo-isoindolin-4-yl]amino]acetyl]azetidine-3-carbonyl]amino]-4-fluoro-phenyl]methylsulfonyl]-2,2-dimethyl-4-piperidyl]amino]-2-fluoro-phenyl]thiophene-2-carboxylic acid], for which the 50% degradation concentration (DC50) in experiment [1] was less than 50 nM; in experiment [2] it was 200 to 1000 nM.
Taken in the same sequence, the figures for `Cn1c(=O)n(C2CCC(=O)NC2=O)c2ccc(N3CC4(CN(C(=O)Nc5cccc(CS(=O)(=O)N6CC[C@H](Nc7cccc(-c8sc(C(=O)O)c(OCC(=O)O)c8Cl)c7)CC6(C)C)c5)C4)C3)cc21` (stereo partly drawn) [Example 140, 3-(carboxymethoxy)-4-chloro-5-[3-[[(4S)-1-[[3-[[6-[1-(2,6-dioxo-3-piperidyl)-3-methyl-2-oxo-benzimidazol-5-yl]-2,6-diazaspiro[3.3]heptane-2-carbonyl]amino]phenyl]methylsulfonyl]-2,2-dimethyl-4-piperidyl]amino]phenyl]thiophene-2-carboxylic acid] were less than 50 nM and 50 to 200 nM.
The like results for `O=C(O)COc1c(C(=O)O)sc(-c2cccc(NC3CCN(S(=O)(=O)Cc4cccc(NC(=O)CCCCCN5CCC(Nc6cccc7c6CN(C6CCC(=O)NC6=O)C7=O)CC5)c4)CC3)c2)c1Cl` (stereo not shown) [Example 33, 3-(carboxymethoxy)-4-chloro-5-[3-[[1-[[3-[6-[4-[[2-(2,6-dioxo-3-piperidyl)-1-oxo-isoindolin-4-yl]amino]-1-piperidyl]hexanoylamino]phenyl]methylsulfonyl]-4-piperidyl]amino]phenyl]thiophene-2-carboxylic acid] were, in that order, 200 to 1000 nM and no less than 1000 nM.
The like results for `CC1(C)C[C@@H](Nc2cccc(-c3sc(C(=O)O)c(OCC(=O)O)c3Cl)c2)CCN1S(=O)(=O)Cc1cccc(NC(=O)COc2cccc3c2CN(C2CCC(=O)NC2=O)C3=O)c1` (stereo partly drawn) [Example 29, 3-(carboxymethoxy)-4-chloro-5-[3-[[(4S)-1-[[3-[[2-[2-(2,6-dioxo-3-piperidyl)-1-oxo-isoindolin-4-yl]oxyacetyl]amino]phenyl]methylsulfonyl]-2,2-dimethyl-4-piperidyl]amino]phenyl]thiophene-2-carboxylic acid] were, in that order, 200 to 1000 nM and 200 to 1000 nM.
Take `CC1(C)C[C@@H](Nc2cccc(-c3sc(C(=O)O)c(OCC(=O)O)c3Cl)c2)CCN1S(=O)(=O)Cc1cccc(NC(=O)N2CCC(c3ccc4c5c(cccc35)N(C3CCC(=O)NC3=O)C4=O)CC2)c1` (stereo partly drawn) [Example 205, 3-(carboxymethoxy)-4-chloro-5-[3-[[(4S)-1-[[3-[[4-[1-(2,6-dioxo-3-piperidyl)-2-oxo-benzo[cd]indol-S-yl]piperidine-1-carbonyl]amino]phenyl]methylsulfonyl]-2,2-dimethyl-4-piperidyl]amino]phenyl]thiophene-2-carboxylic acid]: the DC50 in experiment [1] and in experiment [2] was 50 to 200 nM in each case.
On to `CC1(C)C[C@@H](Nc2cccc(-c3sc(C(=O)O)c(OCC(=O)O)c3Cl)c2)CCN1S(=O)(=O)Cc1cccc(NC(=O)C2CN(C(=O)CNc3ccc4c(c3)CN(C3CCC(=O)NC3=O)C4=O)C2)c1` (stereo partly drawn) [Example 57, 3-(carboxymethoxy)-4-chloro-5-[3-[[(4S)-1-[[3-[[1-[2-[[2-(2,6-dioxo-3-piperidyl)-1-oxo-isoindolin-5-yl]amino]acetyl]azetidine-3-carbonyl]amino]phenyl]methylsulfonyl]-2,2-dimethyl-4-piperidyl]amino]phenyl]thiophene-2-carboxylic acid], for which the DC50 is 50 to 200 nM in experiment [1] and no less than 1000 nM in experiment [2].
The like results for `Cn1c(=O)n(C2CCC(=O)NC2=O)c2ccc([C@H]3CN(C(=O)Nc4cccc(CS(=O)(=O)N5CC[C@H](Nc6cccc(-c7sc(C(=O)O)c(OCC(=O)O)c7Cl)c6)CC5(C)C)c4)CC[C@@H]3F)cc21` (stereo partly drawn) [Example 214, 3-(carboxymethoxy)-4-chloro-5-[3-[[(4S)-1-[[3-[[(3S,4S)-3-[1-(2,6-dioxo-3-piperidyl)-3-methyl-2-oxo-benzimidazol-5-yl]-4-fluoro-piperidine-1-carbonyl]amino]phenyl]methylsulfonyl]-2,2-dimethyl-4-piperidyl]amino]phenyl]thiophene-2-carboxylic acid] were, in that order, 200 to 1000 nM and 50 to 200 nM.
As for `CC1(C)C[C@@H](Nc2cccc(-c3sc(C(=O)O)c(OCC(=O)O)c3Cl)c2)CCN1S(=O)(=O)Cc1cccc(NC(=O)CN2CCC(c3ccc4c5c(cccc35)C(=O)N4C3CCC(=O)NC3=O)CC2)c1` (stereo partly drawn) [Example 83, 3-(carboxymethoxy)-4-chloro-5-[3-[[(4S)-1-[[3-[[2-[4-[1-(2,6-dioxo-3-piperidyl)-2-oxo-benzo[cd]indol-6-yl]-1-piperidyl]acetyl]amino]phenyl]methylsulfonyl]-2,2-dimethyl-4-piperidyl]amino]phenyl]thiophene-2-carboxylic acid], the 50% degradation concentration (DC50) in experiment [1] is less than 50 nM; in experiment [2], 50 to 200 nM.
